Experimental data reported in patent US20240150369A1, “CYCLIN-DEPENDENT KINASE INHIBITING COMPOUNDS FOR THE TREATMENT OF MEDICAL DISORDERS” (G1 Therapeutics, Inc., priority 2020, published 2024).

How the values were obtained:
Assay type in all cases: biochemical
[1] = molecular target: CDK3-CYCLIN-E (Homo sapiens (Human), UniProt Q00526); test: CDK3-Cyclin-E kinase assay (Nanosyn, Caliper microfluidic); details: 12-point dose-response, singlicate, at Km for ATP
Protocol: (§1) Selected compounds disclosed herein were tested in kinase assays by Nanosyn (Santa Clara, CA) to determine their inhibitory effect on these CDKs. The assays were performed using microfluidic kinase detection technology (Caliper Assay Platform). The compounds were tested in 12-point dose-response format in singlicate at Km for ATP.

[2] = molecular target: CDK7 (Homo sapiens (Human), UniProt P50613); test: CDK7 kinase assay (Nanosyn, Caliper microfluidic); details: 12-point dose-response, singlicate, at Km for ATP
Chain of CDK7 (P50613 whole entry): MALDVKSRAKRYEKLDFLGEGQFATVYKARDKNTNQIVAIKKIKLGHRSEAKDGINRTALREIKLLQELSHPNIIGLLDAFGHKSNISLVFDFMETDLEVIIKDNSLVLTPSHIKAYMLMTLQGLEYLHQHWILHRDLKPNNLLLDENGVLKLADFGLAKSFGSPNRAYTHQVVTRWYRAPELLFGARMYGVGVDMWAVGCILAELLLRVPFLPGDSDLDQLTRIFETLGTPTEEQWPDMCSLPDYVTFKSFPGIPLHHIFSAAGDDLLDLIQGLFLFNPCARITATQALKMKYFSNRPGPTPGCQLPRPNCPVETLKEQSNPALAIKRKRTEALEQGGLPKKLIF
Chain of CDK7 (P51946 whole entry partner): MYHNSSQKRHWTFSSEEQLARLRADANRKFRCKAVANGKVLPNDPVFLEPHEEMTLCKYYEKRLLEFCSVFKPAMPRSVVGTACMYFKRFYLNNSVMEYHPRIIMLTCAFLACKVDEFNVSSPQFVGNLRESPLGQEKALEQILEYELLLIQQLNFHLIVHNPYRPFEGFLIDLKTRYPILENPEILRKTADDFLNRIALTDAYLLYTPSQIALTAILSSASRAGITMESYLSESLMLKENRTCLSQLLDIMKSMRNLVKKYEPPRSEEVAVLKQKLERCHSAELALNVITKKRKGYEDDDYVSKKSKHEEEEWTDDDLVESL
Chain of CDK7 (P51948 whole entry partner): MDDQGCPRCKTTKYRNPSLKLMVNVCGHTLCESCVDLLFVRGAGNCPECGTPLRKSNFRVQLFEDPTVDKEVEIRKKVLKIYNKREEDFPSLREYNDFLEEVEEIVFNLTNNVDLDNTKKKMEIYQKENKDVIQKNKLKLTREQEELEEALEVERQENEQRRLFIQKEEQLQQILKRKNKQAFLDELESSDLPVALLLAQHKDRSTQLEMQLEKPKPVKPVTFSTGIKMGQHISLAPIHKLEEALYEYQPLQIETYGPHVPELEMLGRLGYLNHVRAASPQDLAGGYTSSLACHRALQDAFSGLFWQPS
Protocol: as §1

[3] = molecular target: CDK5-p25 (Homo sapiens (Human), UniProt Q00535); test: CDK5-p25 kinase assay (Nanosyn, Caliper microfluidic); details: 12-point dose-response, singlicate, at Km for ATP
Chain of CDK5-p25 (Q00535 whole entry): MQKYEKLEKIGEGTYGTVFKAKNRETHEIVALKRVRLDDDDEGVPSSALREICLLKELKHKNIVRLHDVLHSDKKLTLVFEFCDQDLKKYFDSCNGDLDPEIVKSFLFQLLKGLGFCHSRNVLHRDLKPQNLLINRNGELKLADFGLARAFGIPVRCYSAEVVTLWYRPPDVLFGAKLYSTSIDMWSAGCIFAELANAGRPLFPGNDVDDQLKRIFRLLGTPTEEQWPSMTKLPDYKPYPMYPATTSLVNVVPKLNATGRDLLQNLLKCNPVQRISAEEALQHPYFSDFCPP
Chain of CDK5-p25 (Q15078 99-307 partner): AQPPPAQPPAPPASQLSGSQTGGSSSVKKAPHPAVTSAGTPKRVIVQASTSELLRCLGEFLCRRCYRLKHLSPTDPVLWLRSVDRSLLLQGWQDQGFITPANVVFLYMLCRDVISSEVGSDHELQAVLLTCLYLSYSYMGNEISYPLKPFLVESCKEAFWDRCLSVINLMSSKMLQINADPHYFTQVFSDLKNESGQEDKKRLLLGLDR
Protocol: as §1

[4] = molecular target: CDK1/Cyclin B1 (Homo sapiens (Human), UniProt P06493); test: CDK1/Cyclin B1 kinase assay (Nanosyn, Caliper microfluidic); details: 12-point dose-response, singlicate, at Km for ATP; ATP 40 μM; 3 hr
Chain of CDK1/Cyclin B1 (P06493 whole entry): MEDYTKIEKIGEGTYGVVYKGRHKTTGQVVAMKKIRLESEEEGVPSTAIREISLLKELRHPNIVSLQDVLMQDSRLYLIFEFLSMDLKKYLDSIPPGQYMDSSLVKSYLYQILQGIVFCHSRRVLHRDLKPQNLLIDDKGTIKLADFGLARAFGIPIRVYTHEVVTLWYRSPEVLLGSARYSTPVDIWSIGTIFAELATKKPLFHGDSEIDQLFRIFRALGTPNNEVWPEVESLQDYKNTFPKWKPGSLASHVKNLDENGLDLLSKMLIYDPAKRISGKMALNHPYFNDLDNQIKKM
Chain of CDK1/Cyclin B1 (P14635 whole entry partner): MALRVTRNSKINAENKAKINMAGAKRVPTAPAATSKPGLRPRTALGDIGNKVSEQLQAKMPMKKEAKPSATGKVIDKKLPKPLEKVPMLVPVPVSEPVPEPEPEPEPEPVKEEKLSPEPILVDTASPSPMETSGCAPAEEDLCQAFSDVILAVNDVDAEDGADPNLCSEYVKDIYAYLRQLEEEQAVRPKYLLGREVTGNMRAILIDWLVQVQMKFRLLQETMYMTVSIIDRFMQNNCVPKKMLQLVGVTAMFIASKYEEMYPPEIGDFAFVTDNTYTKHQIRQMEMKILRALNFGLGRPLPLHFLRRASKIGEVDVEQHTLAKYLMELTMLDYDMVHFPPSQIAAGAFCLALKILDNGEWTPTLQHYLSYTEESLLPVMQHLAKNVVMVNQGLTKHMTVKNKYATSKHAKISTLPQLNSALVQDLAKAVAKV
Protocol: as §1, with “ATP. Specifics of each assay are as described below:” for “ATP.”
CDK1/Cyclin B1: Enzyme concentration: 0.08 nM; ATP concentration: 40 μM; Incubation time: 3 hr.

[5] = molecular target: CDK2/Cyclin E (Homo sapiens (Human), UniProt P24941); test: CDK2/Cyclin E kinase assay (Nanosyn, Caliper microfluidic); details: 12-point dose-response, singlicate, at Km for ATP; ATP 100 μM; 3 hr
Protocol: as §1, with “ATP. Specifics of each assay are as described below:” for “ATP.”
CDK2/Cyclin E: Enzyme concentration: 0.15 nM; ATP concentration: 100 μM; Incubation time: 3 hr.

[6] = molecular target: CDK4/Cyclin D1 (Homo sapiens (Human), UniProt P11802); test: CDK4/Cyclin D1 kinase assay (Nanosyn, Caliper microfluidic); details: 12-point dose-response, singlicate, at Km for ATP; ATP 200 μM; 3 hr
Chain of CDK4/Cyclin D1 (P11802 whole entry): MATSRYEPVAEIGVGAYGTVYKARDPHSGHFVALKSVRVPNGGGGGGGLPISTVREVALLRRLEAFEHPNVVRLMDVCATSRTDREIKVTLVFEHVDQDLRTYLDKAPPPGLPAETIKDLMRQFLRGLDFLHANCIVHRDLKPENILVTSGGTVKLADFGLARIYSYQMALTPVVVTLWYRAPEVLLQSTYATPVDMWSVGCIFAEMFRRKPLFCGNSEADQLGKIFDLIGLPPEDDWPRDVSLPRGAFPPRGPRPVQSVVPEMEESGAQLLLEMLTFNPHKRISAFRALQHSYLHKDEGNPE
Chain of CDK4/Cyclin D1 (P24385 whole entry partner): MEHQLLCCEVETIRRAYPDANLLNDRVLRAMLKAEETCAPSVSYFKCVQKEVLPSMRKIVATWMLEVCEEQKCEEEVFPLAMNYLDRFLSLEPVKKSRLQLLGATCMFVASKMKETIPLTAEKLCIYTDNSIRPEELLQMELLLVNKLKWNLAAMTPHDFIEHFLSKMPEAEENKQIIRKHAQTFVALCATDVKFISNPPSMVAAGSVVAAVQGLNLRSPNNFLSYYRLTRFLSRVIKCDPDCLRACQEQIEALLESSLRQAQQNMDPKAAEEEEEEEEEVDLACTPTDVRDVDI
Protocol: as §1, with “ATP. Specifics of each assay are as described below:” for “ATP.”
CDK4/Cyclin D1: Enzyme concentration: 1 nM; ATP concentration: 200 μM; Incubation time: 3 hr.

[7] = molecular target: CDK6/Cyclin D3 (Homo sapiens (Human), UniProt Q00534); test: CDK6/Cyclin D3 kinase assay (Nanosyn, Caliper microfluidic); details: 12-point dose-response, singlicate, at Km for ATP; ATP 300 μM; 3 hr
Chain of CDK6/Cyclin D3 (Q00534 whole entry): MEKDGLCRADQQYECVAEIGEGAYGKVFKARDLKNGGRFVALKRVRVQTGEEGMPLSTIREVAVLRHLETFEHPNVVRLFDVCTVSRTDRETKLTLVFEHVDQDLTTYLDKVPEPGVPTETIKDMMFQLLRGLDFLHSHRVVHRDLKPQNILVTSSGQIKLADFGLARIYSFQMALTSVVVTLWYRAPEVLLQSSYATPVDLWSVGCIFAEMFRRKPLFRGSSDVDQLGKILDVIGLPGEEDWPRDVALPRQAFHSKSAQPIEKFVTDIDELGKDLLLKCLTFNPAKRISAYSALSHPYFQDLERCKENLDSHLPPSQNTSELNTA
Chain of CDK6/Cyclin D3 (P30281 whole entry partner): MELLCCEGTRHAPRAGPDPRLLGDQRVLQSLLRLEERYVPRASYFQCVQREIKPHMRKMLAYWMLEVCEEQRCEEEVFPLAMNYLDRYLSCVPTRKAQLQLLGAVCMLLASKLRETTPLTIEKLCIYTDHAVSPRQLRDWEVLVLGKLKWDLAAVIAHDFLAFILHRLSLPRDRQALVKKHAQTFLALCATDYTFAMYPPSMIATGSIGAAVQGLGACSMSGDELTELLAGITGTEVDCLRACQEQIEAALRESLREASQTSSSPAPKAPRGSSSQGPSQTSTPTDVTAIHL
Protocol: as §1, with “ATP. Specifics of each assay are as described below:” for “ATP.”
CDK6/Cyclin D3: Enzyme concentration: 2 nM; ATP concentration: 300 μM; Incubation time: 3 hr.

[8] = molecular target: CDK2/Cyclin A (Homo sapiens (Human), UniProt P24941); test: CDK2/Cyclin A kinase assay (Nanosyn, Caliper microfluidic); details: 12-point dose-response, singlicate, at Km for ATP; ATP 50 μM; 3 hr
Protocol: as §1, with “ATP. Specifics of each assay are as described below:” for “ATP.”
CDK2/Cyclin A: Enzyme concentration: 0.1 nM; ATP concentration: 50 μM; Incubation time: 3 hr.

[9] = molecular target: CDK9/Cyclin T1 (Homo sapiens (Human), UniProt P50750); test: CDK9/Cyclin T1 kinase assay (Nanosyn, Caliper microfluidic); details: 12-point dose-response, singlicate, at Km for ATP; ATP 10 μM; 17 hr
Chain of CDK9/Cyclin T1 (P50750 whole entry): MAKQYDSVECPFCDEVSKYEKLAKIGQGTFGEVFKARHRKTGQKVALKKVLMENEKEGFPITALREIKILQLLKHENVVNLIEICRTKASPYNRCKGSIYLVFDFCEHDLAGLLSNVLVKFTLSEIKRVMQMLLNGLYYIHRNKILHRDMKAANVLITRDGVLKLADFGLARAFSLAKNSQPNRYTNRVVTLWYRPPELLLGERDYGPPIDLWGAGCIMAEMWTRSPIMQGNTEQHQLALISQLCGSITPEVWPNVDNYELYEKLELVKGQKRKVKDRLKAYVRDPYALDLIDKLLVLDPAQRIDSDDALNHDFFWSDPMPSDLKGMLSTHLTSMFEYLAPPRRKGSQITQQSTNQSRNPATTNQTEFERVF
Chain of CDK9/Cyclin T1 (O60563 whole entry partner): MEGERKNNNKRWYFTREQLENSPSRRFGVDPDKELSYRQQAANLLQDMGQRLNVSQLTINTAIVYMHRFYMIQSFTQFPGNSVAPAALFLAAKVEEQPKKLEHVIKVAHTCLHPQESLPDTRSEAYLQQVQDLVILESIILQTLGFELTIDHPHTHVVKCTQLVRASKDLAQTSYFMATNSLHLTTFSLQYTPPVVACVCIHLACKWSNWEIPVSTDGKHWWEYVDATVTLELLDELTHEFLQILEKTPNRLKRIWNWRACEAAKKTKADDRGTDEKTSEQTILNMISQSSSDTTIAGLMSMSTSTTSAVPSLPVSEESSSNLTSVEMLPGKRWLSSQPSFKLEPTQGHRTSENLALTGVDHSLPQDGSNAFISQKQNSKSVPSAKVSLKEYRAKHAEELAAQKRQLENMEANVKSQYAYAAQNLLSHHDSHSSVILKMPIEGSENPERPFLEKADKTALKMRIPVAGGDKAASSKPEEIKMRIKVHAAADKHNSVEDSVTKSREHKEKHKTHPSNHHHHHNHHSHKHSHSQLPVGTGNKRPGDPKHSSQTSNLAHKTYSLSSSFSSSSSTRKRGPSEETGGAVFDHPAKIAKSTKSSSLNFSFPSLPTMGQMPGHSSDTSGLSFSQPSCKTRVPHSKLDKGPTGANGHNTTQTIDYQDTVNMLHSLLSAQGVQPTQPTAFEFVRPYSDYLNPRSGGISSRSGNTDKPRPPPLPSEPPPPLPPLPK
Protocol: as §1, with “ATP. Specifics of each assay are as described below:” for “ATP.”
CDK9/Cyclin T1: Enzyme concentration: 5 nM; ATP concentration: 10 μM; Incubation time: 17 hr.

| SMILES | IC50 [1] [nM] | IC50 [2] [nM] | IC50 [3] [nM] | IC50 [4] [nM] | IC50 [5] [nM] | IC50 [6] [nM] | IC50 [7] [nM] | IC50 [8] [nM] | IC50 [9] [nM] |
| --- | --- | --- | --- | --- | --- | --- | --- | --- | --- |
| NS(=O)(=O)c1ccc(Nc2ncc3cc4n(c3n2)C2(CCCCC2)C(=O)NC4O)cc1 (centres unmarked) [Compound 1, 4-((6′-hydroxy-8′-oxo-7′,8′-dihydro-6′H-spiro[cyclohexane-1,9′-pyrazino[1′,2′:1,5]pyrrolo[2,3-d]pyrimidin]-2'-yl)amino)benzenesulfonamide] | 0.94 | 560 | 0.8 | 2.2 | 0.34 | 3.1 | 7.5 | 0.16 | 1.4 |
| NS(=O)(=O)c1ccc(Nc2ncc3cc4n(c3n2)C2(CCCCC2)CC(=O)N4)cc1 [Compound 2, 4-((7′-oxo-7′,8′-dihydro-6′H-spiro[cyclohexane-1,9′-pyrrolo[1,5-a:2,3-d′]dipyrimidin]-2′-yl)amino)benzenesulfonamide] | 2.8 | 200 | 1.3 | 3.7 | 0.5 | 41 | 98 | 0.4 | 4.5 |
| NS(=O)(=O)c1ccc(Nc2ncc3cc4n(c3n2)C2(CCCCC2)C(=O)NN4)cc1 [Compound 3, 4-((3′-oxo-2′,3′-dihydro-1′H-spiro[cyclohexane-1,4′-pyrimido[5′,4′:4,5]pyrrolo[2,1-c][1,2,4]triazin]-7′-yl)amino)benzenesulfonamide] | 9.9 | > 1000 | 14 | 33 | 0.56 | 130 | 350 | 2.5 | 62 |
| CN1NC(=O)C2(CCCCC2)n2c1cc1cnc(Nc3ccc(S(N)(=O)=O)cc3)nc12 [Compound 12, 4-((1′-methyl-3′-oxo-2′,3′-dihydro-1′H-spiro[cyclohexane-1,4′-pyrimido[5′,4′:4,5]pyrrolo[2,1-c][1,2,4]triazin]-7′-yl)amino)benzenesulfonamide] | 59 | > 1000 | 140 | 88 | 13 | 28 | 160 | 9.2 | 180 |
| NS(=O)(=O)c1ccc(Nc2ncc3cc4n(c3n2)C2(CCCCC2)C(=O)N[C@H]4CF)cc1 [Compound 18, (R)-4-((6′-(fluoromethyl)-8′-oxo-7′,8′-dihydro-6′H-spiro[cyclohexane-1,9′-pyrazino[1′,2′:1,5]pyrrolo[2,3-d]pyrimidin]-2′-yl)amino)benzenesulfonamide] | 18 | 840 | 17 | 20 | 2.7 | 33 | 150 | 1.7 | 10 |
| C[C@@H]1NC(=O)C2(CCCCC2)n2c1cc1cnc(Nc3ccc(S(N)(=O)=O)cc3)nc12 [Compound 19, (S)-4-((6′-methyl-8′-oxo-7′,8′-dihydro-6′H-spiro[cyclohexane-1,9′-pyrazino[1′,2′:1,5]pyrrolo[2,3-d]pyrimidin]-2′-yl)amino)benzenesulfonamide] | 34 | 800 | 62 | 40 | 4.8 | 40 | 210 | 4.3 | 22 |
| CN1CCN(C(=O)c2ccc(Nc3ncc4cc5n(c4n3)C3(CCCCC3)C(=O)NC5O)cc2)CC1 (centres unmarked) [Compound 53, 6′-hydroxy-2′-((4-(4-methylpiperazine-1-carbonyl)phenyl)amino)-6′,7′-dihydro-8′H-spiro[cyclohexane-1,9′-pyrazino[1′,2′:1,5]pyrrolo[2,3-d]pyrimidin]-8′-one] | 10 | 615 | – | 27 | 4 | 2 | 5 | 2 | 10 |
